Measurements reported in ChEMBL document CHEMBL5046251, “Discovery of a Series of Pyrimidine Carboxamides as Inhibitors of Vanin-1” (J Med Chem, 2022).
Activity calls are given as the source filed them. The calls are words filed in the database; no cut-off is given here.

Experiments:
[1] = Plasma protein binding in human assessed as unbound fraction; assay type: ADME, cell-free
[2] = Oral bioavailability in rat at 10 mg/kg measured upto 24 hrs by LC-MS/MS analysis; assay type: ADME, organism-based; details: in vivo
[3] = Clearance in rat at 2 mg/kg, iv measured upto 24 hrs by LC-MS/MS analysis; assay type: ADME, organism-based; details: in vivo
[4] = Half life in rat at 2 mg/kg, iv measured upto 24 hrs by LC-MS/MS analysis; details: in vivo
[5] = system: CYP2A4; assay: Inhibition of CYP2A4 (unknown origin) at 3 uM relative to control; assay type: ADME; details: human
[6] = Plasma protein binding in beagle dog assessed as unbound fraction; assay type: ADME, cell-free, Canis lupus familiaris
[7] = Volume of distribution in rat at 2 mg/kg, iv measured upto 24 hrs by LC-MS/MS analysis; assay type: ADME, organism-based; details: in vivo
[8] = Half life in beagle dog by LC-MS/MS analysis; details: in vivo
[9] = AUC in rat at 2 mg/kg, iv measured upto 24 hrs by LC-MS/MS analysis; assay type: ADME, organism-based; set-up: route intravenous, dose 2 mg/kg, time <=24; details: in vivo
[10] = system: Mus musculus; assay: In vivo inhibition of vanin-1 in DSS-induced BALB/c mouse colitis model serum administered for 10 days; assay type: functional, organism-based; details: dose 0.5-50 mg/kg, time 10.0 day
[11] = Unbound drug concentration in serum of DSS-induced BALB/c mouse colitis model at 5 mg/kg administered for 10 days; assay type: ADME, organism-based; details: in vivo, 240 h, time 10 day
[12] = Unbound drug concentration in serum of DSS-induced BALB/c mouse colitis model at 0.5 mg/kg administered for 10 days; assay type: ADME, organism-based; details: in vivo, 240 h, time 10 day
[13] = Unbound drug concentration in serum of DSS-induced BALB/c mouse colitis model at 1.5 mg/kg administered for 10 days; assay type: ADME, organism-based; details: in vivo, 240 h, time 10 day
[14] = system: Mus musculus; assay: Anti-colitis activity against DSS-induced BALB/c mouse model assessed as reduction in disease activity index at 0.5 to 50 mg/kg, po, qd administered for 10 days; assay type: functional, organism-based; details: dose 0.5-50 mg/kg, time 10.0 day
[15] = Renal clearance in beagle dog assessed as glomerular filtration rate; assay type: ADME, Canis lupus familiaris; details: in vivo
[16] = Plasma protein binding in Wistar han rat assessed as unbound fraction; assay type: ADME, cell-free
[17] = system: Mus musculus; assay: Anti-colitis activity against DSS-induced BALB/c mouse model assessed as increase in body weight at 0.5 to 50 mg/kg, po, qd administered for 10 days; assay type: functional, organism-based; details: dose 0.5-50 mg/kg, time 10.0 day
[18] = Inhibition of beagle dog vanin-1
[19] = Intrinsic clearance in human hepatocytes assessed per million cells; assay type: ADME, cell-based, Hepatocyte
[20] = Oral bioavailability in beagle dog; assay type: ADME, organism-based, Canis lupus familiaris; details: in vivo
[21] = Clearance in beagle dog by LC-MS/MS analysis; assay type: ADME, Canis lupus familiaris; details: in vivo
[22] = Intrinsic clearance in rat hepatocytes assessed per million cells; assay type: ADME, cell-based, Hepatocyte
[23] = Intrinsic clearance in human hepatocytes assessed per million cells by relay assay method; assay type: ADME, cell-based, Hepatocyte
[24] = Renal clearance in rat at 2 mg/kg, iv assessed glomerular filtration rate; assay type: ADME, organism-based; details: in vivo
[25] = Volume of distribution at steady state in beagle dog by LC-MS/MS analysis; assay type: ADME, Canis lupus familiaris; details: in vivo, read-out: Vdss
[26] = Intrinsic clearance in human liver microsomes; assay type: ADME, Microsome
[27] = AUC in rat at 10 mg/kg, po measured upto 24 hrs by LC-MS/MS analysis; assay type: ADME, organism-based; set-up: route oral, dose 10 mg/kg, time <=24; details: in vivo
[28] = Unbound drug concentration in serum of DSS-induced BALB/c mouse colitis model at 50 mg/kg administered for 10 days; assay type: ADME, organism-based; details: in vivo, 240 h, time 10 day
[29] = Plasma protein binding in mouse assessed as unbound fraction; assay type: ADME, cell-free

**Q.** For `O=C(c1cnc(NCc2cnccn2)nc1)N1CCC2(CCOCC2)C1` [PFI-653], which fraction unbound [1] is on record?
**A.** 0.812

**Q.** And the bioavailability [2]?
**A.** 96%

**Q.** What about the clearance [3] of the same compound?
**A.** 19 mL/min/kg

**Q.** What about the half-life at 24 h [4] of the same compound?
**A.** 1 h

**Q.** And the inhibition at 3 µM [5]?
**A.** < 5%

**Q.** What about the fraction unbound [6] of the same compound?
**A.** 0.826

**Q.** What about the Vd [7] of the same compound?
**A.** 0.84 L/kg

**Q.** And the half-life [8]?
**A.** 3.4 h

**Q.** What about the AUC at 24 h [9] of the same compound?
**A.** 1790 ng·h/mL

**Q.** What about the Activity [10] of the same compound?
**A.** Dose-Dependent Effect

**Q.** What about the “Drug uptake(free)” value [11] of the same compound?
**A.** 202 nM

**Q.** And the “Drug uptake(free)” value [12]?
**A.** 1 nM

**Q.** What about the “Drug uptake(free)” value [13] of the same compound?
**A.** 61 nM

**Q.** What about the Activity [14] of the same compound?
**A.** Active

**Q.** And the CL [15]?
**A.** 22%

**Q.** And the fraction unbound [16]?
**A.** 0.812

**Q.** What about the Activity [17] of the same compound?
**A.** Active

**Q.** And the IC50 [18]?
**A.** 0.9 nM

**Q.** What about the CLint [19] of the same compound?
**A.** < 3 µL/min/1e6 cells

**Q.** What about the bioavailability [20] of the same compound?
**A.** 100%

**Q.** What about the clearance [21] of the same compound?
**A.** 3.5 mL/min/kg

**Q.** And the CLint [22]?
**A.** < 3 µL/min/1e6 cells

**Q.** And the CLint [23]?
**A.** < 0.16 µL/min/1e6 cells

**Q.** And the CL [24]?
**A.** 55%

**Q.** And the Vd [25]?
**A.** 0.94 L/kg

**Q.** And the Intrinsic clearance [26]?
**A.** < 8 µL/min/mg

**Q.** What about the AUC at 24 h [27] of the same compound?
**A.** 8540 ng·h/mL

**Q.** What about the “Drug uptake(free)” value [28] of the same compound?
**A.** 773 nM

**Q.** What about the fraction unbound [29] of the same compound?
**A.** 0.941
